# Test results as given in patent US20240269128A1, “COMPOUNDS FOR TREATING OR PREVENTING ALZHEIMER'S DISEASE” (THE UNITED STATES OF AMERICA, as represented by the …, priority 2021, published 2024).
# Key:
# [1] = test system: hippocampal CA1 synapses of APP/PS1 mice; experiment: Late long-term potentiation, field recordings in hippocampal slices; design: species or system mouse; details: for S1 fEPSP slope at the end of the experiment / potentiation of S1 fEPSP slope after STET: APP/PS1 slices
# [2] = test system: murine microglial cell line BV-2; experiment: LPS-induced neuroinflammation in BV-2 microglial cells (cytokines by MSD V-PLEX, MTT); format: cell-based, mouse
# Experimental: Lipopolysaccharide (LPS)-Induced Neuroinflammation: The murine microglial cell line BV-2 was cultivated in DMEM medium supplemented with 10% FCS, 1% penicillin/streptomycin and 2 mM L-glutamine (culture medium). For LPS stimulation assay, 5000 BV-2 cells per well (uncoated 96 well plates) were plated out and the medium was changed to treatment medium (DMEM, 5% FCS, 2 mM L-glutamine). After changing cells to treatment medium, drug compounds were administered 1 hour before LPS stimulation (Sigma-Aldrich; L6529; 1 mg/ml stock in ddH2O, final concentration in well: 100 ng/ml (dilutions in medium)). Cells treated with vehicle, cells treated with LPS alone, as well as cells treated with LPS plus reference item (dexamethasone 10 μM, Sigma D4902) served as controls. After 24 h of stimulation, cell supernatants were collected for the cytokine measurement (V-PLEX Proinflammatory Panel 1 Mouse Kit, K15048D, Mesoscale) and cells were subjected to MTT assay.
# MTT Assay: MTT solution was added to each well in a final concentration of 0.5 mg/mL. After 2 h, the MTT containing medium was aspirated. Cells were lysed in 3% SDS and the formazan crystals were dissolved in isopropanol/HCl. Optical density was measured with a Cytation 5 (Biotek) multimode reader at wavelength 570 nm. Values were calculated as percent of control values (vehicle control or lesion control).
# After changing cells to treatment medium, HCQ (0.25 μM, 2.5 μM and 25 μM) was applied 1 hour before LPS stimulation (Sigma-Aldrich; L6529; 1 mg/ml stock in ddH2O, final concentration in well: 100 ng/ml (dilutions in medium)).
# [3] = test system: SH-SY5Y-hTau441(V337M/R406W) cells; experiment: Tau phosphorylation assay (Phospho(Thr231)/Total Tau); format: cell-based, human
# Experimental: Tau Phosphorylation: SH-SY5Y-hTau441(V337M/R406W) cells were maintained in culture medium (DMEM medium, 10% FCS, 1% NEAA, 1% L-Glutamine, 100 g/mL Gentamycin, 300 μg/mL Geneticin G-418) and differentiated with 10 μM retinoic acid (RA) for 5 days changing medium every 2 to 3 days. Prior to the treatment, cells were seeded onto 24-well plates at a cell density of 2×10^5 cells per well (DIV1). Drug compounds were applied on DIV2. After 24 h of incubation (DIV3), cells on 24-well plates were harvested in 60 μL RIPA-Buffer [50 mM Tris pH 7.4, 1% Nonidet P40, 0.25% Na-deoxy-cholate, 150 mM NaCl, 1 mM EDTA supplemented with freshly added 1 μM NaF, 0.2 mM Na-ortho-vanadate, 80 μM Glycerophosphate, protease (Calbiochem) and phosphatase (Sigma) inhibitor cocktail]. Protein concentration was determined by BCA assay (Pierce, ThermoFisher) and samples were adjusted to a uniform total protein concentration. Total Tau and phosphorylated Tau were determined by immunosorbent assay from Mesoscale Discovery (Phospho(Thr231)/Total Tau Kit K15121D, Mesoscale Discovery).
# Tau phosphorylation: SH-SY5Y-hTau441(V337M/R406W) cells were maintained in culture medium (DMEM medium, 10% FCS, 1% NEAA, 1% L-Glutamine, 100 μg/mL Gentamycin, 300 μg/mL Geneticin G-418) and differentiated with 10 μM retinoic acid (RA) for 5 days changing medium every 2 to 3 days. Prior to the treatment, cells were seeded onto 24-well plates at a cell density of 2×10^5 cells per well (DIV1). HCQ (25 μM) was applied on DIV2. After 24 h of incubation (DIV3), cells on 24-well plates were harvested in 60 μL RIPA-Buffer [50 mM Tris pH 7.4, 1% Nonidet P40, 0.25% Na-deoxy-cholate, 150 mM NaCl, 1 mM EDTA supplemented with freshly added 1 μM NaF, 0.2 mM Na-ortho-vanadate, 80 μM Glycerophosphate, protease (Calbiochem) and phosphatase (Sigma) inhibitor cocktail]. Protein concentration was determined by BCA assay (Pierce, ThermoFisher) and samples were adjusted to a uniform total protein concentration. Total Tau and phosphorylated Tau were determined by immunosorbent assay from Mesoscale Discovery (Phospho(Thr231)/Total Tau Kit K15121D, Mesoscale Discovery).
# Tau Phosphorylation: SH-SY5Y-hTau441(V337M/R406W) cells were maintained in culture medium [DMEM medium, 10% FCS, 1% nonessential amino acids (NEAA), 1% l-glutamine, gentamycin (100 μg/ml), and geneticin G-418 (300 μg/ml)] and differentiated with 10 μM retinoic acid for 5 days changing medium every 2 to 3 days. […] Protein concentration was determined by BCA assay (Pierce, Thermo Fisher Scientific, Waltham, MA), and samples were adjusted to a uniform total protein concentration. Total tau and phosphorylated tau were determined by immunosorbent assay from Mesoscale Discovery [Phospho(Thr231)/Total Tau Kit K15121D, Mesoscale Discovery, Meso Scale Diagnostics]. […]
# H4-hAPP cells = experiment: Aβ secretion assay; format: cell-based, human
# Experimental: (§1) Aβ Secretion: H4-hAPP cells were cultivated in Opti-MEM supplemented with 10% FCS, 1% penicillin/streptomycin 200 μg/mL Hygromycin B and 2.5 μg/mL Blasticidin S. H4-hAPP cells were seeded into 96 well plates (2×10^4 cells per well). On the next day, cells in 96 well plates were treated with compounds, R.I. (DAPT 400 nM) or vehicle. 24 h later, supernatants were collected for further Aβ measurements by MSD® (V-PLEX Aβ Peptide Panel 1 (6E10) Kit, K15200E, Mesoscale Discovery).
# as §1, with “secretion: Human APP overexpressing” for “Secretion:”, “HCQ (0.25 μM, 2.5 μM and 25 μM) or the reference item” for “with compounds, R.I.”, “nM), a γ-secretase inhibitor” for “nM) or”
# (§2) Cultivation and treatment of H4-hAPP cells: H4-hAPP cells were thawed and cultivated in Opti-MEM supplemented with 10% FCS, 1% penicillin/streptomycin 200 μg/ml Hygromycin B and 2.5 μg/ml Blasticidin S (=culture medium). H4-hAPP cells were seeded into 96 well plates (2×10^4 cells per well). On the next day, cells in 96 well plates were treated with TUDCA (100 μM (C1), 10 μM (C2), or 1.0 μM (C3)), R.I. (DAPT 400 nM) or vehicle. Alternatively, cells in 96 well plates were treated with 25 μM HCQ/0.1 μM TUDCA (C1), 2.5 μM HCQ/100 μM TUDCA (C2), and 2.5 μM HCQ/10 μM TUDCA (C3). 24 h later, supernatants were collected for further Aβ measurements by MSD. The experiment was performed in n=6 technical replicates for all groups.
# (§3) Aβ38, 40, 42 measurement: Supernatants were diluted 1:10 and analyzed for human Aβ38, 40, and 42 with MSD® 96-well MULTI-SPOT® 6E10 Abeta Triplex Assay (Mesoscale Discovery, Rockville, MD). The immune assay was carried out according to the manual and plates are read on the MESO QuickPlex SQ 120 multiplexing instrument. Analyte levels were evaluated according to adequate Aβ peptide standards (MSD) as pg per mL.
# Aβ Secretion: H4-hAPP cells were cultivated in Opti-MEM supplemented with 10% FCS, 1% penicillin/streptomycin, hygromycin B (200 μg/ml), and blasticidin S (2.5 μg/ml). H4-hAPP cells were seeded into 96-well plates (2×10^4 cells per well). On the next day, cells in 96-well plates were treated with compounds, reference item [400 nM N-[N-(3,5-difluorophenacetyl-1-alanyl)]-S-phenylglycine t-butyl ester (DAPT)], or vehicle. Twenty-four hours later, supernatants were collected for further Aβ measurements by MSD [V-PLEX Aβ Peptide Panel 1 (6E10) Kit, K15200E, Mesoscale Discovery].
# as §2, with “Culture” for “Cultivation”, “T.I.,” for “TUDCA (100 μM (C1), 10 μM (C2), or 1.0 μM (C3)),”, “vehicle.” for “vehicle. Alternatively, cells in 96 well plates were treated with 25 μM HCQ/0.1 μM TUDCA (C1), 2.5 μM HCQ/100 μM TUDCA (C2), and 2.5 μM HCQ/10 μM TUDCA (C3).”
# as §3, with “measurement in H4-hAPP cells:” for “measurement:”, “Discovery).” for “Discovery, Rockville, MD).”, “were” for “are”, “120.” for “120 multiplexing instrument.”
# BV-2 cells = experiment: Aβ1-42 clearance assay; format: cell-based, mouse; details: posterior probability of a protective effect, Bayesian dose-response model
# Experimental: AB Clearance: For the amyloid beta (Aβ) clearance assay, 20000 BV-2 cells per well (uncoated 96 well plates) were plated out. After changing cells to treatment medium, drug compounds were administered 1 hour before Aβ stimulation (Bachem 4061966; final concentration in well: 200 ng/ml (dilutions in medium)). Cells treated with vehicle and cells treated with Aβ alone served as controls. After 3 h of Aβ stimulation, cell supernatants were collected for the Aβ measurement and cells were carefully washed twice with PBS and thereafter lysed in 35 μL cell lysis buffer (50 mM Tris-HCl, pH 7.4, 150 mM NaCl, 5 mM EDTA, 1% SDS) supplemented with protease inhibitors. Supernatants and cell lysates were analyzed for human Aβ42 with MSD® V-PLEX Human Aβ42 Peptide (6E10) Kit (K151LBE, Mesoscale Discovery). The immune assay was carried out according to the manual and plates were read on the MESO QuickPlex SQ 120.
# Aβ1-42 clearance: For Abeta (Aβ1-42) clearance assay, 20,000 BV-2 cells per well (uncoated 96 well plates) were plated out. After changing cells to treatment medium, HCQ (0.25 μM, 2.5 μM and 25 μM) was applied 1 hour before Aβ1-42 stimulation (Bachem 4061966; final concentration in well: 200 ng/ml (dilutions in medium)). Cells treated with vehicle (0.1% DMSO) and cells treated with Aβ1-42 alone served as controls. After 3 h of Aβ1-42 stimulation, cell supernatants were collected for the Aβ1-42 measurement and cells were carefully washed twice with PBS and thereafter lysed in 35 μL cell lysis buffer (50 mM Tris-HCl, pH 7.4, 150 mM NaCl, 5 mM EDTA, 1% SDS) supplemented with protease inhibitors. Supernatants and cell lysates were analyzed for human Aβ1-42 with MSD® V-PLEX Human Aβ42 Peptide (6E10) Kit (K151LBE, Mesoscale Discovery). The immune assay was carried out according to the manufacturer's manual and plates were read on the MESO QuickPlex SQ 120.
# Aβ Clearance: 20,000 BV2 cells per well (uncoated 96-well plates were plated out. After changing cells to treatment medium, drug compounds were administered 1 hour before Aβ stimulation (final concentration in well 200 ng/ml; dilutions in medium). Cells treated with vehicle and cells treated with Aβ alone served as controls. After 3 hours of Aβ stimulation, cell supernatants were collected for the Aβ measurement and cells were carefully washed twice with PBS and thereafter lysed in 35 μl of cell lysis buffer (50 mM tris-HCl, pH 7.4, 150 mM NaCl, 5 mM EDTA, and 1% SDS) supplemented with protease inhibitors. Supernatants and cell lysates were analyzed for human Aβ42 with the MSD V-PLEX Human Aβ42 Peptide (6E10) Kit (K151LBE, Mesoscale Discovery). The immune assay was carried out according to the manual, and plates were read on MESO QuickPlex SQ 120 (Meso Scale Diagnostics, Rockville, MD).
# For Aβ clearance assay, 20,000 BV-2 cells per well (uncoated 96 well plates) were plated out. After 24 hours, medium was changed to treatment medium (DMEM, 5% FCS, 2 mM L-glutamine) and cells were maintained in treatment medium for the remaining culture period. After changing cells to treatment medium, the test items were administered 1 hour before Aβ stimulation (Bachem 4061966; final concentration in well: 200 ng/mL (dilutions in medium)). Cells treated with vehicle, cells treated with Aβ alone, as well as wells with Aβ but no cells served as controls. All wells were handled the same way. After 3 h of Aβ stimulation, cell supernatants were collected for the Aβ measurement and cells were carefully washed twice with PBS and thereafter lysed in 35 μl cell lysis buffer (50 mM Tris-HCl, pH 7.4, 150 mM NaCl, 5 mM EDTA, 1% SDS) supplemented with protease inhibitors. Cells were incubated for 15 min at RT on a plate shaker, samples were frozen at −80° C. until further use. The experiment was performed in n=6 technical replicates for all groups. […]
# iPSCs = experiment: LPS induced neuroinflammation (iPSCs); format: cell-based; details: posterior probability of a protective effect
# Experimental: Cell-based assays: For each combination of drugs and assay, the posterior probability P(Hi|data) of protective, neutral, and adverse drug effect (formal hypotheses H1, H0, H2, respectively) were evaluated. Dose-response relationships (x-y data) were modeled with a Bayesian nonlinear regression model:
# and Bayesian estimation of the posterior density of the fold change was performed using default settings of the Markov chain Monte Carlo samples implemented by the PyMC python library. For efficient sample, each bioactivity data set was standardized such that […] corresponded to one standard deviation. Diagnostic criteria (posterior sample of fitted curves, effective sample sizes, values of the r statistic, and Markov chain standard errors) were inspected for the fit and three poorly fitted data sets out of a total of 91 data sets were excluded.
# [4] = test system: hippocampal neuronal cells; details: Lee et al. 2019; cited from earlier work
# [5] = test system: hippocampal cell cultures; details: Rzemieniec et al. 2019; cited from earlier work
smiles,measurement,setting,value
CCN(CCO)CCCC(C)Nc1ccnc2cc(Cl)ccc12 (racemic) [HCQ racemic free base],late-LTP in APP/PS1 mice,[1]; 25 μM HCQ racemic free base,partial rescue
same,late-LTP in APP/PS1 mice,[1]; 50 μM HCQ racemic free base,diminished initial potentiation which did not last
same,late LTP in age-matched WT mice,"[1]; 50 μM HCQ racemic free base, preliminary (n=1)",partially impaired
same,S1 fEPSP slope at the end of the experiment,[1]; 25 μM HCQ racemic free base,118.003±7.753%
same,potentiation of S1 fEPSP slope after STET,[1]; 25 μM HCQ racemic free base,155.545±12.309%
same,S1 fEPSP slope at the end of the experiment,[1]; 50 μM HCQ racemic free base,119.117±8.167%
same,potentiation of S1 fEPSP slope after STET,[1]; 50 μM HCQ racemic free base,128.809±8.116%
"COc1ccc(S(=O)(=O)Nc2cc(-c3c(O)ccc4ccccc34)c(O)c3ccccc23)cc1 [C188-9, N-[4-hydroxy-3-(2-hydroxynaphthalen-1-yl)naphthalen-1-yl]-4-methoxybenzenesulfonamide]",release of IL-1β,"[2]; 0.3 μM and 0.6 μM, relative to LPS",significantly reduced
same,release of IL-6,"[2]; 0.6 μM, 24 h LPS stimulation, relative to LPS",significantly reduced
same,cell viability,"[2]; C188-9 in LPS assay, results not shown",no adverse effects on cell viability
same,phosphorylated tau 231 (ptau),"[3]; 10 μM, 24 h, relative to VC",significantly reduced
same,Aβ42: Aβ40 ratio,"H4-hAPP cells; 1 μM, relative to VC",significantly reduced
same,endogenous Aβ1-42,"H4-hAPP cells; 1 μM, relative to VC",significantly reduced
same,cell viability,"H4-hAPP cells; C188-9 in Aβ secretion assay, results not shown",no adverse effects on cell viability
Cc1c[nH]c(-c2cnc(NCCNc3ccc(C#N)cn3)nc2-c2ccc(Cl)cc2Cl)n1 [CHIR],phosphorylated Tau,"[3]; reference item, compared to vehicle control",significantly reduced
"C[C@H](NC(=O)Cc1cc(F)cc(F)c1)C(=O)N[C@H](C(=O)OC(C)(C)C)c1ccccc1 [DAPT, N-[N-(3,5-difluorophenacetyl-1-alanyl)]-S-phenylglycine t-butyl ester]","Aβ species (Aβ1-38, 1-40 and 1-42) in supernatant","H4-hAPP cells; reference item, 400 nM, 24 h",significantly reduced all tested species
"c1ccc2c(Cc3c[nH]c4ccccc34)c[nH]c2c1 [DIM, 3,3′-diindolylmethane]",effect in LPS induced neuroinflammation (BV2 cells),[2]; posterior probability of a protective effect,protective
same,effect in Aβ clearance (BV2 cells),BV-2 cells,strongly protective
same,LTP in APP/PS1 slices,"[1]; 10 μM DIM, acute application",rescues LTP
same,late LTP in APP/PS1 slices,[1]; 3-hour pre-incubation with 10 μM DIM,no longer results in rescue
same,effect in LPS induced neuroinflammation (iPSCs),iPSCs,strongly protective
same,oxidative stress-induced apoptosis,[4],inhibit
same,ischemia-induced apoptosis and autophagy,[5],protect
